Source: patent publication US5346896A, “1-(aryl or heteroaryl)-4[ω-(aryl or heteroaryl)ω-(aryl or heteroaryl)alkylene]piperazines” (John Wyeth & Brother, Limited, priority 1990, dated 1994)

Target: T1, 5-HT1A receptor (Rattus norvegicus, UniProt P19327)
T1 construct: rat hippocampal membrane homogenate; from tissue; host or cells: rat hippocampus, membrane homogenate
T1 sequence (P19327 1-422): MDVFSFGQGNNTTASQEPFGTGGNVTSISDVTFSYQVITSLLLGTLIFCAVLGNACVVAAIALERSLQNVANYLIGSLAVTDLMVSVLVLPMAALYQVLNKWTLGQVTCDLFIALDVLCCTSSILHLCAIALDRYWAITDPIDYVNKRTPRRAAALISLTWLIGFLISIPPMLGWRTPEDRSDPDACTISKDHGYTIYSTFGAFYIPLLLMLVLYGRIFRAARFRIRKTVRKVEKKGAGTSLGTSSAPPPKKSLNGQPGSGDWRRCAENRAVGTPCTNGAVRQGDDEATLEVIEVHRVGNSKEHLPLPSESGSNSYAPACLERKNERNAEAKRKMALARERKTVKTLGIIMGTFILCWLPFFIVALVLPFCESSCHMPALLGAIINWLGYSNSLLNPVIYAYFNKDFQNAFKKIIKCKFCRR
Test: 5-HT1A receptor binding activity in rat hippocampal membrane homogenate
Settings: method of Alexander and Wood
Description: The compounds of the invention are tested for 5-HT1A receptor binding activity in rat hippocampal membrane homogenate by the method of B. S. Alexander and M. D. Wood, J Pharm Pharmacol, 1988, 40, 888-891.

- IC50: 20 nM
SMILES: COc1ccccc1N1CCN(CC(c2ccccn2)C(O)c2ccccc2)CC1 (stereo not shown) [Example 2]
